Assay results reported in paper PMC9012132 (Journal of medicinal chemistry, 2021).
pIC50: −log10 of the molar value. Entries after “also recorded” stand apart in the source; their conditions may differ.

Columns and labels:
Stratifin (Sfn) = assay: RT-qPCR of BPTF regulated genes in Eph4 cells, Sfn; conditions: 5 μM, 24 h, relative to DMSO
[1] = system: BPTF knockdown (KD) 4T1 cells; assay: Inhibitors with doxorubicin in shRNA-mediated BPTF knockdown 4T1 cells; type: cell-based, mouse; conditions: inhibitor and doxorubicin, control for off-target effects
4T1 breast cancer cells [2] = assay: Inhibitor toxicity study in 4T1 cells; type: cell-based, mouse
4T1 breast cancer cells [3] = assay: Combination treatment with doxorubicin in 4T1 cells; conditions: combination with 50 nM doxorubicin, 4 days
BRD9 = target: T1, BRD9 (Homo sapiens, UniProt Q9H8M2); conditions: previously reported; cited from earlier work
T1 sequence (Q9H8M2 136-240 limits assumed): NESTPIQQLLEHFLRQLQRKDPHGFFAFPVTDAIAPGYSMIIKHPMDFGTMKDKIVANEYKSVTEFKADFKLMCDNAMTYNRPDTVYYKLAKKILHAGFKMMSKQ

PCAF = target: T2, PCAF (Homo sapiens, UniProt Q92831); conditions: previously reported; cited from earlier work
T2 sequence (Q92831 723-827 limits assumed): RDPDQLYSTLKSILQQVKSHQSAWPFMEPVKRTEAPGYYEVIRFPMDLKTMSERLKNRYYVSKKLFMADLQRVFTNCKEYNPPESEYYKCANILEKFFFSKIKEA

5FW-PCAF = target: T3, 5FW-PCAF (Homo sapiens, UniProt Q92831); assay: Protein-observed fluorine; type: binding; conditions: qualitative
T3 sequence (Q92831 723-827): T2 sequence (Q92831 723-827 limits assumed)

5FW-BRD4(1) = 5FW-BRD4(1) (Homo sapiens, UniProt O60885); assay: Protein-observed fluorine; type: binding; conditions: qualitative
5FW-CECR2 = 5FW-CECR2 (Homo sapiens, UniProt Q9BXF3); assay: Protein-observed fluorine; type: binding; conditions: qualitative
5FW-CECR2, sequence (Q9BXF3 434-538): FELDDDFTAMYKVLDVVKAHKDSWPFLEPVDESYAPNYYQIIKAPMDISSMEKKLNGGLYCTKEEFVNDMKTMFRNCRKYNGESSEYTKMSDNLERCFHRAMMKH

BPTF bromodomain = BPTF bromodomain (Homo sapiens, UniProt Q12830); type: binding; conditions: AlphaScreen
BRD4(1) = BRD4(1) (Homo sapiens, UniProt O60885); assay: AlphaScreen competitive inhibition assay, BRD4; type: binding
CECR2 = conditions: cited from earlier work

## COC(=O)c1cccc(NC(=O)NC2CCN(c3ccnc(Nc4ccc(F)cc4)n3)C2)c1 (stereo not shown) [AU1, reference compound]
Stratifin (Sfn)
  effect on Sfn mRNA level: upregulated Sfn but did not reach a high enough level of statistical significance
[1]
  further toxicity in BPTF knockdown cells: Additional toxicity
4T1 breast cancer cells [2]
  concentration above which sharp toxicity profile starts: above 16 μM
4T1 breast cancer cells [3]
  sensitization of 4T1 cells to doxorubicin: synergize

## Cn1ncc(Nc2ccccc2)c(Cl)c1=O [Compound 6, 4-chloro-2-methyl-5-(phenylamino)pyridazin-3(2H)-one]
BRD9
  affinity for BRD9: 2.5 µM
PCAF
  affinity for PCAF: 10 µM

## Cn1ncc(Nc2ccc(CCN)cc2)c(Cl)c1=O [Compound 18, 5-((4-(2-aminoethyl)phenyl)amino)-4-chloro-2-methylpyridazin-3(2H)-one]
5FW-PCAF
  PrOF NMR chemical exchange regime with PCAF: slow exchange regime
4T1 breast cancer cells [3]; listed as BZ1
  sensitization of 4T1 cells to doxorubicin: sensitized
5FW-BRD4(1)
  PrOF NMR chemical exchange regime with BRD4(1): fast-intermediate exchange
5FW-CECR2
  PrOF NMR chemical exchange regime with CECR2: intermediate chemical exchange

## CN(C)CCc1ccc(Nc2cnn(C)c(=O)c2Cl)cc1 [Compound 19, 4-chloro-5-((4-(2-(dimethylamino)ethyl)phenyl)amino)-2-methylpyridazin-3(2H)-one]
Stratifin (Sfn)
  effect on Sfn mRNA level: statistically significant increase
4T1 breast cancer cells [3]
  sensitization of 4T1 cells to doxorubicin: sensitized; also recorded: synergize

## CN(C)CCc1ccc(Nc2c(Cl)cnn(C)c2=O)cc1 [Compound 20, 5-chloro-4-((4-(2-(dimethylamino)ethyl)phenyl)amino)-2-methylpyridazin-3(2H)-one]
Stratifin (Sfn)
  effect on Sfn mRNA level: not significantly affected
BPTF bromodomain
  fold weaker affinity than 18: 140 fold

## CC(C)n1ncc(Nc2ccc(CN)cc2)c(Cl)c1=O [Compound 25, 5-((4-(aminomethyl)phenyl)amino)-4-chloro-2-isopropylpyridazin-3(2H)-one]
BRD4(1)
  pIC50: < 3.60

## CN(C)CCCOc1ccc(-c2cc(NCCCn3cccn3)nc(S(C)(=O)=O)n2)cc1 [TP-238]
CECR2
  fold higher affinity for CECR2 over BPTF: 12 fold
